Paper PMC2782520 (Biochemistry, 2009)

Experiments:
[1] = target: T1, ERβ (Homo sapiens, UniProt Q92731); test: Cell based functional assay, ERE-luciferase in HEK 293 cells, agonist mode; details: for ERβ Agonist % stim: % stimulation versus DES maximum response; for EC50: read-out: ERβ Agonist EC50, ERE-luciferase, 24 h
[2] = target: ERβ LBD (amino acids 257–502) (Homo sapiens, UniProt Q92731); test: Differential HDX mass spectrometry of ERβLBD with and without ligand; type: binding; details: for Average difference in deuterium levels, LOOP 271-294 / Average difference in deuterium levels, LOOP 271-295 / Average difference in deuterium levels, LOOP 273-294 / Average difference in deuterium levels, LOOP 273-295 / Average difference in deuterium levels, LOOP 274-295 / Average difference in deuterium levels, LOOP 282-294 / Average difference in deuterium levels, LOOP 282-295: ERβLBD:ligand 1:10, average of 1, 30, 60, 900, 4200 sec, negative = protection
[3] = target: T1, ERβ; test: Cell based functional assay, ERE-luciferase in HEK 293 cells, antagonist mode; details: for ERβ Antag % inhib.: HEK 293 cells, ERE-luciferase
[4] = target: T2, ERα (Homo sapiens, UniProt P03372); test: ER competition binding assay
T2 sequence (P03372 1-595): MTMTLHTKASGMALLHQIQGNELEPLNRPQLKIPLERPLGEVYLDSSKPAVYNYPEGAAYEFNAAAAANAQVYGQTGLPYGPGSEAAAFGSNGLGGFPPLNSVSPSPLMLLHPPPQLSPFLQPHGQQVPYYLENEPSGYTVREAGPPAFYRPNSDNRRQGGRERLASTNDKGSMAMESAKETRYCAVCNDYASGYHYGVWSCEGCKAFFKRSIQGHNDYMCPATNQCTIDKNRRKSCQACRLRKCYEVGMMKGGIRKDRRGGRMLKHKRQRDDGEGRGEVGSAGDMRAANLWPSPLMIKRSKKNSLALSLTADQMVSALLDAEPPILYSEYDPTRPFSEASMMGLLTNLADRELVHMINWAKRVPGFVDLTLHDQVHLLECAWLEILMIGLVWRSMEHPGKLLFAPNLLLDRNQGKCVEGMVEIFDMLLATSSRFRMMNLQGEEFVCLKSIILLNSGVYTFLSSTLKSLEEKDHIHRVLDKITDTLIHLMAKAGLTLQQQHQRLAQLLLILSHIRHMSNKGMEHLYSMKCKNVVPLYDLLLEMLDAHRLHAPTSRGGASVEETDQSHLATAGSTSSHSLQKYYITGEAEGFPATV

[5] = target: T1, ERβ; test: ER competition binding assay
[6] = test system: ER β; details: ERβ versus ERα; cited from earlier work

T1 sequence (Q92731 whole entry, the tested form may be a part): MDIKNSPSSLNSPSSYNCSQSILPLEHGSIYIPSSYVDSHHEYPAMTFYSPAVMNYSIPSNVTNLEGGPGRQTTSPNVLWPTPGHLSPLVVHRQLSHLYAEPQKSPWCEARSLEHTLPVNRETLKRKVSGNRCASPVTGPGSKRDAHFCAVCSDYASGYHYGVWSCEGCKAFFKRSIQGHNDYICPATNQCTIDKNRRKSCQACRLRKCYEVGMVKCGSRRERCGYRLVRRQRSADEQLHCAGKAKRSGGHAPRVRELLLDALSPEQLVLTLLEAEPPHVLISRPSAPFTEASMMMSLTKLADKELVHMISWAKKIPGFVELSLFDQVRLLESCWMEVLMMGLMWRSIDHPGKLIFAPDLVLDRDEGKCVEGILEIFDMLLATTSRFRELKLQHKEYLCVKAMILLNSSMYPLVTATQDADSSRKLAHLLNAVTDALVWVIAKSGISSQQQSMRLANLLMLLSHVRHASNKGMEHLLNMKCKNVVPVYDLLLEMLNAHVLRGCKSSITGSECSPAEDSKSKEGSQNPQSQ
ERβ LBD (amino acids 257–502), sequence (Q92731 257-502): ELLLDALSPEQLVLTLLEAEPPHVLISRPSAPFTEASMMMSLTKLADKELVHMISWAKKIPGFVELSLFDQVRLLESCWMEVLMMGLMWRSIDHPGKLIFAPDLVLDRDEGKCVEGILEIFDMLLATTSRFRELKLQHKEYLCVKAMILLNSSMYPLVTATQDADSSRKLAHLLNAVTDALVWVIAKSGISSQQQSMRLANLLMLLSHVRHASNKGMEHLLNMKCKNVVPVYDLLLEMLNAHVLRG

ERβ Antag % inhib. [3]	Ki [4]	IC50 [3]	Ki [5]	SMILES	ERβ Agonist % stim [1]	Average difference in deuterium levels, LOOP 271-294 [2]	Average difference in deuterium levels, LOOP 271-295 [2]	Average difference in deuterium levels, LOOP 273-294 [2]	Average difference in deuterium levels, LOOP 273-295 [2]	Average difference in deuterium levels, LOOP 274-295 [2]	Average difference in deuterium levels, LOOP 282-294 [2]	Average difference in deuterium levels, LOOP 282-295 [2]	Protection to exchange, β-sheet1/β-sheet2 region ([2]; amino acid 355–362 of ERβLBD, p<0.001, positive = protection)	Protection (stabilization) of helix 3 to H/D exchange, ERβ ([2]; helix 3, amino acids 296–309 in ERβ, positive = protection)	EC50 [1]	Binding to ER β tighter than to ERα [6]
				CC/C(=C(/CC)c1ccc(O)cc1)c1ccc(O)cc1 [DES, Diethylstilbestrol]	97%	−10%	−10%	−12%	−10%	−10%	−8%	−10%				
				CC/C(=C(\c1ccc(O)cc1)c1ccc(OCCN(C)C)cc1)c1ccccc1 [4-hydroxy tamoxifen, 4-hydroxytamoxifen]		−8%	−11%	−12%	−11%	−12%	−10%	−11%	~ 20%	13%		
				O=C(c1ccc(OCCN2CCCCC2)cc1)c1c(-c2ccc(O)cc2)sc2cc(O)ccc12 [Raloxifene, raloxifene]		−7%	−7%	−9%	−7%		−6%	−7%				
108%	0.32 nM	204 nM	1.3 nM	O=C(c1ccc(OCCN2CCCC2)cc1)c1c(-c2ccc(O)cc2)sc2cc(O)ccc12 [compound 117018]		−7%	−7%	−8%	−7%	−8%	−7%	−8%			> 10000 nM	
103%				Oc1ccc2c(c1)CC[C@H](c1ccccc1)[C@@H]2c1ccc(OCCN2CCCC2)cc1 [Lasodoxifene, lasofoxifene]		−11%	−11%	−12%	−9%	−12%	−9%	−9%				
				O=c1c(-c2ccc(O)cc2)coc2cc(O)cc(O)c12 [Genistein, genistein]												approximately 10 fold
				O=C(c1ccc(O)cc1)c1c(-c2ccc(O)cc2)sc2cc(O)ccc12 [compound 88074]	104%	−7%	−8%	−9%	−7%	−8%	−7%	−7%			232 nM	
				C[C@]12CC[C@@H]3c4ccc(O)cc4CC[C@H]3[C@@H]1CC[C@@H]2O [Estradiol, 17β-estradiol]	100%	−6%	−7%	−9%	−6%	−8%	−7%	−6%				

SMILES	ERβ Antag % inhib. [3]	Ki [4]	IC50 [3]	Ki [5]	ERβ Agonist % stim [1]	Average difference in deuterium levels, LOOP 271-294 [2]	Average difference in deuterium levels, LOOP 271-295 [2]	Average difference in deuterium levels, LOOP 273-294 [2]	Average difference in deuterium levels, LOOP 273-295 [2]	Average difference in deuterium levels, LOOP 274-295 [2]	Average difference in deuterium levels, LOOP 282-294 [2]	Average difference in deuterium levels, LOOP 282-295 [2]	Protection to exchange, β-sheet1/β-sheet2 region ([2]; amino acid 355–362 of ERβLBD, p<0.001, positive = protection)	Protection (stabilization) of helix 3 to H/D exchange, ERβ ([2]; helix 3, amino acids 296–309 in ERβ, positive = protection)	EC50 [1]	Binding to ER β tighter than to ERα [6]
C[C@]12CC[C@@H]3c4ccc(O)cc4C[C@@H](CCCCCCCCC[S+]([O-])CCCC(F)(F)C(F)(F)F)[C@H]3[C@@H]1CC[C@@H]2O (stereo partly drawn) [ICI, ICI 182780]	109%					−9%	−10%	−11%	−10%	−11%	−9%	−10%				
